# Columns and labels:
# [1] = target: T1, EphA1 (Homo sapiens, UniProt P21709); assay: In vitro kinase activity (Millipore KinaseProfiler): EphA1; assay type: biochemical; conditions: no head or unit printed
# T1 construct: purchased Millipore (KinaseProfiler service)
# Procedure: (§1) All cells were grown in DMEM+10% FCS. ACHN and ACHN shVHL were a kind gift from George V. Thomas (UCLA). HIF overexpressing clones were described previously. Transfection of RNA oligos were performed with DnarmaFECT Reagent 1 (Dharmcon), according to manufacturer's directions. ON-TARGETplus SMART pools against HIF-1β/ARNT were purchased from Dharmacon. Glut1 was detected with anti-GLUT1 antibody from NeoMarkers/LabVision/Fisher. Pyruvate/lactate levels and hexokinase activity were both measured by fluorometric assay (BioVision and Sigma-Aldrich, respectively). ATP levels were measured by bioluminescence assay (ATP Determination Kit from Molecular Probes/Invitrogen). In vitro kinase activities were performed by Millipore KinaseProfiler. Affi-Gel 10 (BioRad) activated affinity media was coupled to analogs to generate immobilized affinity linkers.
# (§2) We next wanted to investigate the differential glucose uptake between RCCs with and without VHL treated with compound 47 that subsequently lead to the selective death of VHL-deficient cells. We first examined the message levels of the two main glucose transporters, GLUT1 and GLUT2 by quantitative real-time PCR. GLUT1 is an inducible, high-affinity glucose transporter, while GLUT2 is the glucose transporter responsible for basal glucose uptake. […] Cells deficient in VHL had very low levels of GLUT2 that could barely be detected (FIG. 3J). […]
# [2] = target: T2, Flt3 (Homo sapiens, UniProt P36888); assay: In vitro kinase activity (Millipore KinaseProfiler): Flt3; assay type: biochemical; conditions: no head or unit printed
# T2 construct: purchased Millipore (KinaseProfiler service)
# T2 sequence (P36888 27-993, species assumed): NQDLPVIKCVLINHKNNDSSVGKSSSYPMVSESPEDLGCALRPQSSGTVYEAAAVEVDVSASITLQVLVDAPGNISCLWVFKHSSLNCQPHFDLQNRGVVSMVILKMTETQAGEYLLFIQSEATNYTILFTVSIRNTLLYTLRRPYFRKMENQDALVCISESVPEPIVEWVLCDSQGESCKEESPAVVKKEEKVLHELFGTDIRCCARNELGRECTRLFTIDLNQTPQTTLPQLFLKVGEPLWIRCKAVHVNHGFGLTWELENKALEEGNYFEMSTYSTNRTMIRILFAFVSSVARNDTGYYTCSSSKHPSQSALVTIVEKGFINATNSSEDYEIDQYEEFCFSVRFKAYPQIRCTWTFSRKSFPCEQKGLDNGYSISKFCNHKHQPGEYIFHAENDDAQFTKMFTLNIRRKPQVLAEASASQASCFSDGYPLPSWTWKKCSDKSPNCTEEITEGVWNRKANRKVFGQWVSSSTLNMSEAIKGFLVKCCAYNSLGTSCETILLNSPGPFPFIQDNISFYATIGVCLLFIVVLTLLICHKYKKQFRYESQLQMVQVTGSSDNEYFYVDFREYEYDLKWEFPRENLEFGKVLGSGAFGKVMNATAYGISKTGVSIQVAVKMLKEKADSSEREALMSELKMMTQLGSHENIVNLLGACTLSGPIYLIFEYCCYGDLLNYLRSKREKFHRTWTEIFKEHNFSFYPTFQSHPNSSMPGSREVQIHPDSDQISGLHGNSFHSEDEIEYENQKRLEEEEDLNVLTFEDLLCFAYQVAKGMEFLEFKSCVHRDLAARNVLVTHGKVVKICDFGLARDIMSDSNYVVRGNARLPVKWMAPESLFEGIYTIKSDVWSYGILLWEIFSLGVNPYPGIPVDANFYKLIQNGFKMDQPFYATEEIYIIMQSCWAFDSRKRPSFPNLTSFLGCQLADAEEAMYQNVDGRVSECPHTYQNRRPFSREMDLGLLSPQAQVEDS
# Procedure: as §1, §2
# [3] = system: RCC4 cells transfected with siRNA to HIF-1β; assay: 3H-2-deoxyglucose uptake, RCC4 with siRNA to HIF-1β; assay type: cell-based, human; conditions: 5 μM, FIG. 3E
# Procedure: as §1
# One hundred thousand cells were plated per well in a six-well plate. The next day, cells were treated with the indicated concentration of drug and incubated for the indicated time. […] Glucose uptake was quantified with a scintillation counter.
# To further investigate the relationship between HIF and compound 47 toxicity, we silenced HIF-1β in RCC4 cells and assessed its affect on glucose uptake. […]
# [4] = target: T3, Pim-2 (Homo sapiens, UniProt Q9P1W9); assay: In vitro kinase activity (Millipore KinaseProfiler): Pim-2; assay type: biochemical; conditions: no head or unit printed
# T3 construct: purchased Millipore (KinaseProfiler service)
# T3 sequence (Q9P1W9 whole entry, species assumed): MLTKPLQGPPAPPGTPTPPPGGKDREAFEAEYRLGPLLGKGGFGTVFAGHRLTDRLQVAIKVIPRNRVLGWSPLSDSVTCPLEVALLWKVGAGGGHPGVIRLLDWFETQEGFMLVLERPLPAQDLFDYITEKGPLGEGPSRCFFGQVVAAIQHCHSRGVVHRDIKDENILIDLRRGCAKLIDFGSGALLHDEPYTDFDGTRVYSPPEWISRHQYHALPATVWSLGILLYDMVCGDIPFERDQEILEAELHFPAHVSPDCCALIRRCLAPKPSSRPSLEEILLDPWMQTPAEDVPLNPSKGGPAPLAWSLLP
# Procedure: as §1, §2
# [5] = target: T4, cKit(D816H) (Homo sapiens, UniProt P10721, D816H); assay: In vitro kinase activity (Millipore KinaseProfiler): cKit(D816H); assay type: biochemical; conditions: no head or unit printed
# T4 construct: purchased Millipore (KinaseProfiler service)
# T4 sequence (P10721 26-976 D816H): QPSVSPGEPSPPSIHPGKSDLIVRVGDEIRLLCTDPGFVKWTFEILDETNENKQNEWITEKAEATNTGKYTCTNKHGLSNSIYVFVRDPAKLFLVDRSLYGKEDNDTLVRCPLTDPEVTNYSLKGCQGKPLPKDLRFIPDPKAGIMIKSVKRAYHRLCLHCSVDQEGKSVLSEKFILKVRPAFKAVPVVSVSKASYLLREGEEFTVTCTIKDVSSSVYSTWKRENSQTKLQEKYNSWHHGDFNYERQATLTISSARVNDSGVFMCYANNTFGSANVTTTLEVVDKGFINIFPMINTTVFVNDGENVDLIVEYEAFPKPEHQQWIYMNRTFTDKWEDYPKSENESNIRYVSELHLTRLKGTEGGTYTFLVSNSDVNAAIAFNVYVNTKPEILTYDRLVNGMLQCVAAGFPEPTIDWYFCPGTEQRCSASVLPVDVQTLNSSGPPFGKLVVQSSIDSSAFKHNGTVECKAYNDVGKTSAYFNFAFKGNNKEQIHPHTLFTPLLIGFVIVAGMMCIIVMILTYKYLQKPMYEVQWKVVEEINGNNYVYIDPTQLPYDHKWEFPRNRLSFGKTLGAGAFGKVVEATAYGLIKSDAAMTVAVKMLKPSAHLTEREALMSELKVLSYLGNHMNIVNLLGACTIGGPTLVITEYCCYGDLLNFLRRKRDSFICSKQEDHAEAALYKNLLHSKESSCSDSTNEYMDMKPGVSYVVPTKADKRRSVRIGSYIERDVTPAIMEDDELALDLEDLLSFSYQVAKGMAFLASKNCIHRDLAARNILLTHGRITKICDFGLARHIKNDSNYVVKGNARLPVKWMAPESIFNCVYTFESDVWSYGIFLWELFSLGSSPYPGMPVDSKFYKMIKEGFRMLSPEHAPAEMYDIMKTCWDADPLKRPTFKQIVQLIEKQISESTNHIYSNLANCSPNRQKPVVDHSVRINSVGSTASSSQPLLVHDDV
# Procedure: as §1, §2
# [6] = target: T5, NEK2 (Homo sapiens, UniProt P51955); assay: In vitro kinase activity (Millipore KinaseProfiler): NEK2; assay type: biochemical; conditions: no head or unit printed
# T5 construct: purchased Millipore (KinaseProfiler service)
# T5 sequence (P51955 whole entry, species assumed): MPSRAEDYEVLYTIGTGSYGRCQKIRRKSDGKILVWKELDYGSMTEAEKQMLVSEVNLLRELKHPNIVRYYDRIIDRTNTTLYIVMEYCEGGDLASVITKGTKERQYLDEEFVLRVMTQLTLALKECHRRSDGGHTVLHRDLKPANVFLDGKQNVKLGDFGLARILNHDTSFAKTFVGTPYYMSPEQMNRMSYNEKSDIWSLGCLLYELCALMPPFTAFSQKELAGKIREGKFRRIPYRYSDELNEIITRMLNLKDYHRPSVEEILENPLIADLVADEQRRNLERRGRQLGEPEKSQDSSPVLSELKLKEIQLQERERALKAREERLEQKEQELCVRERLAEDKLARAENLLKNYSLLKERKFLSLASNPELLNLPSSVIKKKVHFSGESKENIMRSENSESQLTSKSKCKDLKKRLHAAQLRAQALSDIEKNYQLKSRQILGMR
# Procedure: as §1, §2
# [7] = system: hexokinase; assay: Hexokinase activity in whole cell lysates, RCC4; assay type: cell-based, human; conditions: 5 μM
# Procedure: as §1
# We then examined whether this decrease in glycolysis in response to compound 47 was due to a decrease in glucose uptake or whether compound 47 inhibited a particular glycolytic enzyme. To test this, we measured glucose uptake using 2-deoxy-D-[^3H] glucose, a non-hydrolyzable, radioactive glucose analog, following two days of treatment with compound 47. […] RCC4/VHL cells had lower baseline levels of glucose uptake compared to RCC4 cells and were unaffected by treatment with compound 47. […]
# [8] = target: T6, Hck (Homo sapiens, UniProt P08631); assay: In vitro kinase activity (Millipore KinaseProfiler): Hck; assay type: biochemical; conditions: no head or unit printed
# T6 construct: purchased Millipore (KinaseProfiler service)
# T6 sequence (P08631 whole entry, species assumed): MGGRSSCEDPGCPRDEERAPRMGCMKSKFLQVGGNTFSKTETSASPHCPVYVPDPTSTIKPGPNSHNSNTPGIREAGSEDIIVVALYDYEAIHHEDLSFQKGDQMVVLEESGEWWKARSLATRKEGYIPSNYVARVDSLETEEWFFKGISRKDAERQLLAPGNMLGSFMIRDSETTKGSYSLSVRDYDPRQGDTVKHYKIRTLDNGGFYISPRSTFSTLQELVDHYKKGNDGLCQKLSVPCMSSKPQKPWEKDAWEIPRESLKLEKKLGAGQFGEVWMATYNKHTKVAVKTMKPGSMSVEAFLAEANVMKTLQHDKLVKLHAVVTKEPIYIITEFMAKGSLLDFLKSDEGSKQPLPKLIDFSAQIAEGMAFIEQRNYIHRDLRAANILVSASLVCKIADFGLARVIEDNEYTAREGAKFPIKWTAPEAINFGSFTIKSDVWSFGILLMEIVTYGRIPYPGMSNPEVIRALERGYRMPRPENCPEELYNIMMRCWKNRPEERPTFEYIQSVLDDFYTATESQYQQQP
# Procedure: as §1, §2
# [9] = system: 50 different kinases; assay: In vitro kinase panel (Millipore KinaseProfiler), summary; assay type: biochemical
# Procedure: as §1, §2
# [10] = system: RCC4; assay: 3H-2-deoxyglucose uptake, RCC4; assay type: cell-based, human
# Procedure: One hundred thousand cells were plated into 6-well plates. The following day, the cells were treated with vehicle or drug and incubated for the indicated time. Cells were washed twice in phosphate buffered saline and low glucose media was added for 30 minutes. Cells were then incubated with 0.5 microCi of tritiated-2-deoxyglucose and incubated for an hour at 37° C. Cells were washed twice in PBS and then lysed in 0.2 N NaOH and 0.2% SDS. Lysates were transferred to scintillation tubes with scintillation fluid and quantified by scintillation counter.
# One hundred thousand cells were plated per well in a six-well plate. The next day, cells were treated with the indicated concentration of drug and incubated for the indicated time. Cells were then washed twice with phosphate-buffered saline, incubated in low-glucose medium for 30 minutes, and ^3H-2-deoxyglucose (0.5 μCi) was added in 1 ml of glucose-free media for an additional hour. Cells were washed twice in PBS and lysed (0.2 N NaOH and 0.2% sodium dodecyl sulfate). Glucose uptake was quantified with a scintillation counter.
# T1 sequence (P21709 26-976, species assumed): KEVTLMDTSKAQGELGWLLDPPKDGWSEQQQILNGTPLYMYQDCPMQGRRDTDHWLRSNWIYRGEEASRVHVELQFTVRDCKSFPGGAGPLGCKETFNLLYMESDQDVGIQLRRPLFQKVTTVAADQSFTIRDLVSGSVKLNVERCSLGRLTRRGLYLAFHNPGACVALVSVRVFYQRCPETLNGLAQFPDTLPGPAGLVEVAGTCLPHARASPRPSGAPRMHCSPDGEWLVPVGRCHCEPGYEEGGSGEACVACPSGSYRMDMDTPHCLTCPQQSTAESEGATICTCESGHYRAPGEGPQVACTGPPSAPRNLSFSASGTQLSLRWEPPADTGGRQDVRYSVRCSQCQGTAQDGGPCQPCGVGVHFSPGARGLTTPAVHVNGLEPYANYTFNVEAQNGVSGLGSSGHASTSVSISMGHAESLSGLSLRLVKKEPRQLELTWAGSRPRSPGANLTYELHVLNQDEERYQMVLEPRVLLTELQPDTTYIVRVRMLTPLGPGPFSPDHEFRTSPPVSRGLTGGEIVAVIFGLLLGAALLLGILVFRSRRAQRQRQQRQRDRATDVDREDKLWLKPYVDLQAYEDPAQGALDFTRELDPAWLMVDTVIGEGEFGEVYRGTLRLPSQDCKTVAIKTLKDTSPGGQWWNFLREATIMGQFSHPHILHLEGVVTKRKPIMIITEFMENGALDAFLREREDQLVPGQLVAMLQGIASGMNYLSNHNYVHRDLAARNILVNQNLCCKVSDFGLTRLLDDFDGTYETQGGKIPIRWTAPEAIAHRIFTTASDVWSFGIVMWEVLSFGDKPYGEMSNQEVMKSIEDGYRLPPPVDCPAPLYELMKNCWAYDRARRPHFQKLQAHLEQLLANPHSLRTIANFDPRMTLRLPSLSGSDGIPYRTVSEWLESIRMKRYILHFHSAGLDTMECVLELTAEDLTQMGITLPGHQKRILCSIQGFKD
smiles,measurement,setting,value
"CC(C)(C)c1ccc(S(=O)(=O)NCc2ccc(C(=O)Nc3cccnc3)cc2)cc1 [Example 38, 4-((4-tert-Butylphenylsulfonamido)methyl)-N-(pyridin-3-yl)benzamide]",EphA1 kinase activity,[1],102
same,Flt3 kinase activity,[2],111%
same,glucose uptake in RCC4 with HIF-1β silenced,[3],insensitive
same,Pim-2 kinase activity,[4],112
same,cKit(D816H) kinase activity,[5],99
same,NEK2 kinase activity,[6],103
same,hexokinase activity in RCC4,[7],inhibited by compound 47 only after three days of treatment
same,Hck kinase activity,[8],84%
same,decrease in activity of 50 different kinases,[9],no significant decrease
same,glucose uptake in VHL-deficient RCC4 cells,"[10]; 3H-2-deoxyglucose, two days of treatment, 5 μM",impaired glucose uptake
same,concentration dependence of glucose uptake inhibition in RCC4,"[10]; increasing concentrations, FIG. 3C",dose-dependent manner
